Test results as given in patent US7253286B2, “Nitrogen-containing aromatic derivatives” (Eisai Co., Ltd, priority 2000, dated 2007).

Assays:
[1] = system: Human Umbilical Vein Endothelial Cells (HUVECs); test: Inhibition against invasive tube formation by vascular endothelial cells in response to stimulation by angiogenic factor mixture; format: cell-based; design: key: the number of tubes formed in the absence of the test substance was designated as +++; scored on the 5-level scale of +++, ++, +, +/−, −; scored on the 5-level scale of +++, ++, +, +/−, −; scored on the 5-level scale of +++, ++, +, +/−, −; − was assigned if absolutely no tubes formed; conditions: HUVEC on fibrin gel, EGF/FGF2/VEGF/HGF/TNF-α mixture, 6th day, MTT staining; for number of tubes formed in the fibrin gel (score) at 0.01 μM: test substance 0.01 μM; for number of tubes formed in the fibrin gel (score) at 0.1 μM: test substance 0.1 μM; for number of tubes formed in the fibrin gel (score) at 1.0 μM: test substance 1.0 μM
Method: Inhibition Against Invasive Tube Formation by Vascular Endothelial Cells in Response to Stimulation by Angiogenic Factor Mixture
Human Umbilical Vein Endothelial Cells (HUVECs) were isolated according to a reported method (Shinseikagaku Jikken Koza [New Biochemistry Experiment Lectures], “Saibo Baiyo Gijutsu” [Cell Culturing Techniques], p.197–202), and were cultured in a 5% CO2 incubator (37° C.) using EGM-2 medium (purchased from Clonetics Corp.) until the cells reached confluency. After adding 0.4 ml of bovine fibrinogen (purchased from Sigma Co.) to the inner well of a Transwell culturing plate (purchased from Coster Inc.), it was hardened with 0.7 units/ml of thrombin (purchased from Sigma Co.). The HUVECs were recovered using trypsin-EDTA and then suspended in human endothelial serum free medium basal growth medium (hereinafter abbreviated as SFM, purchased from GIBCO BRL), and 0.4 ml of the cell suspension (1.4×10^5 cells) was seeded onto the hardened fibrin gel and cultured for approximately 4 hours in a 5% CO2 incubator (37° C.). After 4 hours, there was added to the outer chamber of the Transwell 1.5 ml of an SFM solution containing a mixture of angiogenic factors {10 ng/ml EGF (purchased from GIBCO BRL), 30 ng/ml FGF2 (purchased from GIBCO BRL), 75 ng/ml VEGF (purchased from Wako Pure Chemical Industries Co., Ltd.), 50 ng/ml HGF (purchased from R&D Co.) and 7.5 ng/ml TNF-α (purchased from Genzyme Corp.) [The concentrations of the angiogenic factors differed slightly according to the HUVEC lot.]} and a diluted test substance, and culturing was carried out in a 5% CO2 incubator (37° C.). On the 2nd and 4th days after adding the test substance, the medium was exchanged with 1.5 ml of freshly prepared SFM solution containing the angiogenic factor mixture and test substance. Upon aspirating off the culture supernatant in the inner well on the 6th day after the initial addition of the test substance, 0.4 ml of a 3.3 mg/ml MTT solution dissolved in PBS (purchased from Sigma Corp.) was added and culturing was performed for approximately 1 hour in a 5% CO2 incubator (37° C.). The number of tubes formed in the fibrin gel stained with MTT was scored based on microscope observation. Specifically, the number of tubes formed in the absence of the test substance was designated as +++, while − was assigned if absolutely no tubes formed. The number of tubes formed in the presence of the test substance was scored on the 5-level scale of +++, ++, +, +/−, − to evaluate the strength of inhibition of the test substance.

VEGFR2 = target: T1, VEGFR2 (Homo sapiens, UniProt P35968); test: Inhibition against VEGFR2 kinase (receptor tyrosine kinase activity, HTRF method); format: biochemical; conditions: His6-VEGFR2 cytoplasmic domain, biotin-poly(GT) substrate, ATP, 30° C. 10 minutes, read-out: IC50 (concentration required for 50% inhibition of VEGFR2 kinase activity)
T1 construct: coding for the cytoplasmic domain, beginning with lysine 791 and including the termination codon; made in house; host or cells: Sf9 insect cells (baculovirus, pFastBacHis)
T1 sequence (P35968 786-1356 limits assumed): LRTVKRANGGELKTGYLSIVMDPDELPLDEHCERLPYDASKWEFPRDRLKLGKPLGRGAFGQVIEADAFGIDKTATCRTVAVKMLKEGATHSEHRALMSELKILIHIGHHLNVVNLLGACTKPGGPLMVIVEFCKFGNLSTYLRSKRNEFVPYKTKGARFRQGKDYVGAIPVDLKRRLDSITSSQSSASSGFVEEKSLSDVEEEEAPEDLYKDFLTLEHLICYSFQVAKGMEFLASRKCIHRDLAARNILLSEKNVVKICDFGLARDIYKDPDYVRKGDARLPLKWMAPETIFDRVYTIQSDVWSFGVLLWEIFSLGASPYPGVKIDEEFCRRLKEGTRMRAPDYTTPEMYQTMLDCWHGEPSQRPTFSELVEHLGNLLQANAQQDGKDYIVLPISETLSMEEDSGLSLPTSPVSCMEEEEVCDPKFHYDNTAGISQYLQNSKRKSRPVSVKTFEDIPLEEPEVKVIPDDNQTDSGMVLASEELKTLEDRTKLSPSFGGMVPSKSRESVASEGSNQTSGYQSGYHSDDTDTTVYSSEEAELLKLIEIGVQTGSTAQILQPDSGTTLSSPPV
Outline: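 Construct: His6-tagged VEGFR2 cytoplasmic domain (from Lys791), expressed in Sf9 cells. Kinase step: biotin-poly(Glu4:Tyr1) substrate, ATP added as 10 μl of 4 μM, Hepes pH 7.4 with Mg2+/Mn2+, 30 °C for 10 min, EDTA stop. Phosphotyrosine product measured by HTRF.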

Q: Which “number of tubes formed in the fibrin gel (score) at 0.01 μM” value [1] does the source give for COCCOc1cc2nccc(Oc3ccc(NC(=O)Nc4nccs4)c(F)c3)c2cc1C#N [Example 25, N-(4-(6-cyano-7-(2-methoxyethoxy)-4-quinolyl)oxy-2-fluorophenyl)-N′-(1,3-thiazol-2-yl)urea] here?
A: Its value is “++”.

Q: What about the “number of tubes formed in the fibrin gel (score) at 0.1 μM” value [1] of the same compound?
A: The value was “+/−”.

Q: What about the “number of tubes formed in the fibrin gel (score) at 1.0 μM” value [1] of the same compound?
A: Its value is “+/−”.

Q: What about the IC50 (VEGFR2) of the same compound?
A: Its IC50 is 5.5 nM.

Q: With COc1cc2nccc(Oc3ccc(N(C)C(=O)Nc4ccc(F)cc4)cc3)c2cc1C(N)=O [Example 348] as the compound, how does the “number of tubes formed in the fibrin gel (score) at 0.01 μM” value [1] read?
A: Its value is “+/−”.

Q: What about the “number of tubes formed in the fibrin gel (score) at 0.1 μM” value [1] of the same compound?
A: Its value is “−”.

Q: What about the “number of tubes formed in the fibrin gel (score) at 1.0 μM” value [1] of the same compound?
A: The value was “−”.

Q: What about the IC50 (VEGFR2) of the same compound?
A: The IC50 was 4.6 nM.
